Assays:
MDA-MB-468 = assay: In vitro antiproliferative assay (CCK-8), MDA-MB-468; type: cell-based; conditions: Homo sapiens, CCK-8, 72 h
Method: (§1) Compound L20 with good performances in both enzyme and K562 cell inhibitory tests were selected for further antiproliferative assay against various cell lines. K562, U266, U937, C6, Fadu, MDA-MB-231, MDA-MB-468, A549, A2780 and HepG2 cell lines were used in the cell-based anticancer evaluation of L20.
(§2) The proliferation of cancer cells was tested by CCK-8 assay. Briefly, cells were seeded in 96-well plate with about 5 × 10^3 cells in each well. The cells were treated with tested compounds after 24 h of incubation. CCK-8 reagent ([…]) was added to each well after 72 h of incubation, and cells were incubated at 37 °C for 4 h. The light absorbance at 450 nm was measured by using an Opsys microplate reader (Dynex Technologies, Chantilly, VA, USA). Results are illustrated as percent of cell viability normalised to DMSO-treated control cells.

[1] = system: Hela nucleus extract containing a mixture of HDAC isoforms; assay: HDAC enzyme inhibitory screening against Hela nucleus extract; type: biochemical; conditions: at concentration of 1.0 µM, mean of three experiments
Method: The synthesised molecules were firstly screened against Hela nucleus extract containing a mixture of HDAC isoforms.
(§3) All HDAC enzymes were purchased from BPS Bioscience. In short, 60 µL of recombinant HDAC enzyme solution was mixed with various concentrations of test compound (40 µL), and then incubated at 37 °C for 30 minutes. The reaction was terminated by adding 100 µL of imaging agent containing trypsin and trichostatin A (TSA). After standing for 20 min, the fluorescence intensity was measured at the excitation and emission wavelengths of 360 and 460 nm with a microplate reader. The inhibition rate was calculated from the fluorescence intensity readings of the test wells relative to the control wells, and the IC50 curve and value were determined by GraphPad Prism 6.0 software.

HDAC1 = biological target: T1, HDAC1 (Homo sapiens, UniProt Q13547); assay: HDAC enzyme inhibitory selectivity test, HDAC1; type: biochemical
T1 construct: purchased BPS Bioscience
T1 sequence (Q13547 whole entry): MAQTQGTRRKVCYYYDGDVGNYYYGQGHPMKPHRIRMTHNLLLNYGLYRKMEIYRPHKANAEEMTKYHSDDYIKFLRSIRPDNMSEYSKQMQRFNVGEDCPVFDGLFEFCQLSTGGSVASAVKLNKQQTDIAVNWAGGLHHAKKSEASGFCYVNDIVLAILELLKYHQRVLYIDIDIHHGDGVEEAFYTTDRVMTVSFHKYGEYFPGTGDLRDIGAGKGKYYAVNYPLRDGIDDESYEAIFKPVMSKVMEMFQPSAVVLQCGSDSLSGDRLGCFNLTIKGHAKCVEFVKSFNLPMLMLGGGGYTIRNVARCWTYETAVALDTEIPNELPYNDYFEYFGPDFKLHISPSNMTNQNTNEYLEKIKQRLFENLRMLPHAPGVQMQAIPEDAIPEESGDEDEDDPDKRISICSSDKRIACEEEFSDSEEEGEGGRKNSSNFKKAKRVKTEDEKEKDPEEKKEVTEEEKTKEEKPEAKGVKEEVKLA
Method: (§4) Therefore, molecule L20 was evaluated in the HDAC enzyme inhibitory selectivity test against HDAC1, 2, 3 and 6 (Table 2).
as §3

HDAC3 = biological target: T2, HDAC3 (Homo sapiens, UniProt O15379); assay: HDAC enzyme inhibitory selectivity test, HDAC3; type: biochemical
T2 construct: purchased BPS Bioscience
T2 sequence (O15379 whole entry): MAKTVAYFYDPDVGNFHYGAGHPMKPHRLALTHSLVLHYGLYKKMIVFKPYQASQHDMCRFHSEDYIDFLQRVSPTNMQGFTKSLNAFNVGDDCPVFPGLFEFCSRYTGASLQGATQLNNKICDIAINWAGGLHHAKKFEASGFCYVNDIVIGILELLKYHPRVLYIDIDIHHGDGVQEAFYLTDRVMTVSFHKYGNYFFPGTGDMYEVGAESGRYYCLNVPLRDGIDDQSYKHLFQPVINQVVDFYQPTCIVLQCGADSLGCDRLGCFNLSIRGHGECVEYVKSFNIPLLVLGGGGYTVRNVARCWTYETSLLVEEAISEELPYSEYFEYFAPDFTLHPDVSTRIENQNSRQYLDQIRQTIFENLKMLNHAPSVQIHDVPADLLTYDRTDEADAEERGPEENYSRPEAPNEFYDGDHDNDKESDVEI
T2 sequence (Q9Y618 395-489 partner limits assumed): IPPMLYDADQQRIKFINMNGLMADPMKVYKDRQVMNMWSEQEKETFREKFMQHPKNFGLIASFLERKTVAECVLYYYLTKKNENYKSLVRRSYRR
Method: as §4, §3

HepG2 = assay: In vitro antiproliferative assay (CCK-8), HepG2; type: cell-based; conditions: Homo sapiens, CCK-8, 72 h
Method: as §2, with “USA).” for “USA). Results are illustrated as percent of cell viability normalised to DMSO-treated control cells.”

K562 cells [2] = assay: Cell apoptosis analysis by flow cytometry (Annexin V-BV421 / 7-AAD); conditions: 24 h, control 1.14%
Method: Cells were incubated with Annexin V-BV421 (Becton Dickinson, USA) and 7-AAD (Becton Dickinson, USA) double labelling for 30 min in the dark at room temperature and measured by flow cytometry (FACSAriaIII, Becton Dickinson, USA). The data was analysed using Flowjo-V10 software.

K562 cells [3] = assay: Cell cycle analysis by flow cytometry (PI); conditions: 24 h, first peak in Figure 5
Method: After treatment, cells were collected and fixed with 70% pre-cold ethanol in PBS and stored at −20 °C overnight. Then washed the cells with PBS twice, and incubated with 100 µg/mL RNase I (Solarbio, China) at 37 °C for 1 h, stained with propidium iodide (PI, 10 µg/mL, Solarbio, China) for 30 min avoid light at room temperature. Finally, DNA content was measured by flow cytometry (FACSAriaIII, Becton Dickinson, USA). The data were analysed and fitted by ModFit software.

HDAC6 = biological target: T3, HDAC6 (Homo sapiens, UniProt Q9UBN7); assay: HDAC enzyme inhibitory selectivity test, HDAC6; type: biochemical; conditions: mean of three experiments
T3 construct: purchased BPS Bioscience
T3 sequence (Q9UBN7 1-1215): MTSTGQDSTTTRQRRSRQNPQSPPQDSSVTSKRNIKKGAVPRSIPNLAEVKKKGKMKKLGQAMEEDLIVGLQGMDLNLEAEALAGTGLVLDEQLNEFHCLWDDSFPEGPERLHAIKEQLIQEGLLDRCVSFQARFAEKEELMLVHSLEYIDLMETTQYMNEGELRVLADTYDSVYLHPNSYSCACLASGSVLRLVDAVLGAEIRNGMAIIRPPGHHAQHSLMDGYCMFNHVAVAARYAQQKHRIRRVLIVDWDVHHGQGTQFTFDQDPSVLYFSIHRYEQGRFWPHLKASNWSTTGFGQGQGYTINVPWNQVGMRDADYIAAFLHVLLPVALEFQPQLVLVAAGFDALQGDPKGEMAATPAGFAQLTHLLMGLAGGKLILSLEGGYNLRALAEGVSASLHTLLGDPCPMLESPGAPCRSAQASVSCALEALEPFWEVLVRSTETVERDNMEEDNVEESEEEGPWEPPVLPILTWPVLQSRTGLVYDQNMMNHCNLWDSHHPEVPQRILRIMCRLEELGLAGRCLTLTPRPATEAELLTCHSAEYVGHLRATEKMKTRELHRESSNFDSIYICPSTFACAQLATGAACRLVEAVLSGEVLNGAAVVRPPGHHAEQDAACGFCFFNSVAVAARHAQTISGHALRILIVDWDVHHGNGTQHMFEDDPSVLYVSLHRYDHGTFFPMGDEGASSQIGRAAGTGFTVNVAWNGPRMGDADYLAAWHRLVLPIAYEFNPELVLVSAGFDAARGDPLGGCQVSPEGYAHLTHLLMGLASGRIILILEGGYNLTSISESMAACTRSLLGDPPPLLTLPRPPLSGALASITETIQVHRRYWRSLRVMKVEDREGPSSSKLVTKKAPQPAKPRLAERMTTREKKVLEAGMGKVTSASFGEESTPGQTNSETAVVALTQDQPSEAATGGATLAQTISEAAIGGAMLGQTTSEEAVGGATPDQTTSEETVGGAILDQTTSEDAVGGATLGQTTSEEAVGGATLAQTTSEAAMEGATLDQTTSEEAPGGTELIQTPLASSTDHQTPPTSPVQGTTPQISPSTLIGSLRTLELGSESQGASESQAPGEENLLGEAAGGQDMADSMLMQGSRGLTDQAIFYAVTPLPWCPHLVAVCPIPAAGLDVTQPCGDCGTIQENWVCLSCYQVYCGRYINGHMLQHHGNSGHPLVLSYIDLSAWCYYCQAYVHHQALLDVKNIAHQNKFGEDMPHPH
Method: as §4, §3

MDA-MB-231 = assay: In vitro antiproliferative assay (CCK-8), MDA-MB-231; type: cell-based; conditions: Homo sapiens, CCK-8, 72 h
Method: as §1, §2

C6 = assay: In vitro antiproliferative assay (CCK-8), C6; type: cell-based; conditions: Rattus norvegicus, CCK-8, 72 h
Method: as §2, with “USA).” for “USA). Results are illustrated as percent of cell viability normalised to DMSO-treated control cells.”

K562 cells [4] = assay: In vitro antiproliferative assay (CCK-8), K562; type: cell-based; conditions: Homo sapiens
Method: as §2, with “USA).” for “USA). Results are illustrated as percent of cell viability normalised to DMSO-treated control cells.”

U937 = assay: In vitro antiproliferative assay (CCK-8), U937; type: cell-based; conditions: Homo sapiens, U-937, CCK-8, 72 h
Method: as §2, with “USA).” for “USA). Results are illustrated as percent of cell viability normalised to DMSO-treated control cells.”

U266 = assay: In vitro antiproliferative assay (CCK-8), U266; type: cell-based; conditions: Homo sapiens, U-266, CCK-8, 72 h
Method: as §2, with “USA).” for “USA). Results are illustrated as percent of cell viability normalised to DMSO-treated control cells.”

A2780 = assay: In vitro antiproliferative assay (CCK-8), A2780; type: cell-based; conditions: Homo sapiens, CCK-8, 72 h
Method: as §2, with “USA).” for “USA). Results are illustrated as percent of cell viability normalised to DMSO-treated control cells.”

A549 = assay: In vitro antiproliferative assay (CCK-8), A549; type: cell-based; conditions: Homo sapiens, CCK-8, 72 h
Method: as §2, with “USA).” for “USA). Results are illustrated as percent of cell viability normalised to DMSO-treated control cells.”

Fadu = assay: In vitro antiproliferative assay (CCK-8), Fadu; type: cell-based; conditions: Homo sapiens, CCK-8, 72 h
Method: as §2, with “USA).” for “USA). Results are illustrated as percent of cell viability normalised to DMSO-treated control cells.”

HDAC2 = biological target: T4, HDAC2 (Homo sapiens, UniProt Q92769); assay: HDAC enzyme inhibitory selectivity test, HDAC2; type: biochemical
T4 construct: purchased BPS Bioscience
T4 sequence (Q92769 whole entry): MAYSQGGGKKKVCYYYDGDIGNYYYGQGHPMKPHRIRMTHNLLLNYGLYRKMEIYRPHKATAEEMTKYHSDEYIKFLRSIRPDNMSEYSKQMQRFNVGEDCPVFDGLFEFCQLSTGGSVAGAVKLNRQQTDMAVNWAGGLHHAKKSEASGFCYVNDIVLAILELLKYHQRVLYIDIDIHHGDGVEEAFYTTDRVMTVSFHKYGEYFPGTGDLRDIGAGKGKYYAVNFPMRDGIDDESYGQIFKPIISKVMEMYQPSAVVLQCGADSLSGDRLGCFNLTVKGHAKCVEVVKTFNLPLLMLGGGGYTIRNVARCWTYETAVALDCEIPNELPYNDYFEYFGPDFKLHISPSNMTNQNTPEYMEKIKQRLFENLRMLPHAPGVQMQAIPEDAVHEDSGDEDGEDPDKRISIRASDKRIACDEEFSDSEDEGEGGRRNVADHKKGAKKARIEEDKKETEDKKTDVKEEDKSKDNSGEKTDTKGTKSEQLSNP
Method: as §4, §3

IC50 (MDA-MB-468): 2.23 ± 0.09 µM
HDACs percentage inhibitory rate [1]: 72.52 ± 1.26%
selectivity index HDAC1 compared with HDAC6 (HDAC1; HDAC1 vs HDAC6): > 1462
IC50 (HDAC1; mean of three experiments): 0.684 ± 0.016 µM
selectivity index HDAC3 compared with HDAC6 (HDAC3; HDAC3 vs HDAC6): > 4608
IC50 (HDAC3; mean of three experiments): 0.217 ± 0.008 µM
IC50 (HepG2): 3.17 ± 0.15 µM
IC50 (HDAC6): > 1000 µM
IC50 (MDA-MB-231): 1.63 ± 0.06 µM
IC50 (K562 cells [4]; CCK-8, 72 h): 0.34 ± 0.02 µM
IC50 (U937): 0.76 ± 0.03 µM
IC50 (U266): 0.28 ± 0.01 µM
IC50 (A2780): 0.97 ± 0.02 µM
IC50 (A549): 1.06 ± 0.03 µM
selectivity index HDAC2 compared with HDAC6 (HDAC2; HDAC2 vs HDAC6): > 392
IC50 (HDAC2; mean of three experiments): 2.55 ± 0.079 µM
Structure (SMILES): COc1cc(Nc2nc(N3CCN(c4ncc(C(=O)NO)cn4)CC3)ncc2Cl)cc(OC)c1 [Compound L20, 2–(4-(5-chloro-4-((3,5-dimethoxyphenyl)amino)pyrimidin-2-yl)piperazin-1-yl)-N-hydroxypyrimidine-5-carboxamide]
apoptotic rate of K562 cells (K562 cells [2]; 1 µM): 2.51%
apoptotic rate of K562 cells (K562 cells [2]; 2 µM): 11.87%
apoptotic rate of K562 cells (K562 cells [2]; 4 µM): 17.60%
G0/G1 phase ratio of K562 cells (K562 cells [3]; 1 µM): 19.34%
G0/G1 phase ratio of K562 cells (K562 cells [3]; 2 µM): 44.85%
IC50 (C6): 1.98 ± 0.1 µM
inhibition at 1 µM (K562 cells [4]; at concentration of 1.0 µM, mean of three experiments, read-out: K562 percentage inhibitory rate): 74.2 ± 1.18%
IC50 (Fadu): 1.42 ± 0.05 µM

Reference: paper PMC9291665, “Discovery and SAR analysis of 5-chloro-4-((substituted phenyl)amino)pyrimidine bearing histone deacetylase inhibitors” (Journal of Enzyme Inhibition and Medicinal Chemistry, 2022)
